Tests used:
[1] = test system: human umbilical vein endothelial cells (HUVEC); assay: Measurement of vWF release after reperfusion (ELISA of cell supernatant); assay type: cell-based
Description: All the examples were carried out with human umbilical vein endothelial cells (HUVEC). These comprise primary cell cultures isolated from the umbilical vein.
For the following examples, the cells were cultivated either on gelatinized glass plates (measurement of the intracellular proton concentration) or on cell culture plates (12-well culture plates, Falcon, N.J., USA; measurement of vWF release) after the first passage.
The measurements were carried out in a Heraeus Heracell incubator. This made it possible to […] the umbilical vein endothelial cells under controlled physiological conditions (temperature 37° C., relative humidity 100%, pCO2 constant at 5%) and to ensure rapid change of different cell culture media. […]
The samples taken from the supernatant were used to determine the vWF concentration. […] The vWF content of standard human plasma (Behring, Marburg) is calculated using an international standard (2nd International Standard 87/718; National Institute for Biological Standards and Control, London).
Table 4: vWF secretion was measured during a 10-minute reperfusion time with stimulation. […]

[2] = test system: human umbilical vein endothelial cells (HUVEC); assay: Measurement of the intracellular pH (BCECF fluorescence) during reperfusion simulation after acidosis; assay type: cell-based; settings: reperfusion buffer pH 7.4 with 10 μM histamine after 60 minutes of acidosis (pHex 6.4); inhibitors each 10 μM; found from first 30 seconds after reperfusion; Mean ± SEM; control buffer 18 ± 1.5
Description: All the examples were carried out with human umbilical vein endothelial cells (HUVEC). These comprise primary cell cultures isolated from the umbilical vein. For the following examples, the cells were cultivated either on gelatinized glass plates (measurement of the intracellular proton concentration) or on cell culture plates (12-well culture plates, Falcon, N.J., USA; measurement of vWF release) after the first passage. To measure the intracellular proton concentration (pHi), the HUVECs were loaded with the pH-sensitive fluorescent dye BCECF-AM (2′,7′-bis(carboxyethyl)-5(6)-carboxyfluorescein). A Deltascan spectrofluorometer (PTI, Hamburg) was employed for the subsequent fluorescence measurement. This measuring system consists essentially of a UV light source, a monochromator, a photon detector and the Felix and Oscar software packages (PTI, Hamburg) for controlling the system via a computer. After alternate excitation with the wavelengths 439.5 nm (pH-independent) and 490 nm (pH-sensitive), the ratio of the measured emissions of the BCECF (ratio) was reported and the pH was found after a calibration. The measuring cell is designed so that the parameters of temperature and carbon dioxide partial pressure in the system are controlled during continuous perfusion. […]

COCCOc1nc(-c2ccccc2)n(Cc2ccc(-c3ccccc3S(=O)(=O)NC#N)cc2S(C)(=O)=O)c1C=O [Compound 1, 4′-[5-formyl-4-(2-methoxyethoxy)-2-phenyl-1-imidazolylmethyl]-3′-methylsulfonylbiphenyl-2-sulfonylcyanamide]
vWF secretion during reperfusion of preacidotic cells, relative to control cells (vWFco = 100%) ([1]; 10 μM compound, 10-minute reperfusion time with stimulation (10 μM histamine), preacidotic cells without inhibitor 193 ± 8.0%): 157 ± 18%
reduction of the increased vWF secretion during reperfusion ([1]; blockade of the NCBE transporter, 10 μM, reperfusion of preacidotic cells): ~50%

CC(C)c1ccc(C(=O)NC(=N)N)cc1S(C)(=O)=O [NHE, cariporide]
Time to Δ PHi, max/2 (time to the half-maximum pHi change) [2]: 190 ± 2.9 s
